Data on one molecule can be found in patent US12600742B2, “Markers, conjugates, compositions and methods for hypoxia imaging, mapping, and therapy” (WWIKY BIOSCIENCES INC., priority 2017, dated 2026).

Series [1] deals with FaDu cells. Nature of the series: Cell proliferation assay (cell counts). Type of series: cell-based, human. To be noted: 100 μM, alone or in combination with 5 Gy IR. How it is done: (§1) Human head and neck squamous cell carcinoma cell line, FaDu, was purchased from American Type Culture Collection (ATCC HTB-43). FaDu cells were cultured in Dulbecco's Modified Eagle's medium/Nutrient Mixture F-12 media supplemented with 10% Fetal bovine serum, 2 mM L-glutamine and 10% Penicillin Streptomycin. Cells were cultured in a humidified incubator at 37° C. with 5% CO2.
(§2) Hypoxic cytotoxicity of ACN was evaluated using colony formation assay. FaDu cells were seeded on 60 mm glass petri dishes (in triplicates) at a density of 300 cells per plate. Cells were allowed to attach for 24 hours, followed by treatment with 1 μM, 10 μM and 100 μM of freshly dissolved ACN for 24 hours under normoxia (20% O2) or hypoxia (1% O2 and <0.1% O2); 100 μM DMSO was used as vehicle control. Cells were allowed to grow and form colonies for 14 days. Colonies were stained with crystal violet, counted and plotted as percentage of vehicle conditions; error bars show standard error of the means. […] Colonies were stained with crystal violet, counted and plotted as percentage of vehicle (DMSO) controls; error bars represent standard error of the means. […] 1 hr following IR, cells were trypsinized, counted, and seeded on 24 well plates in triplicates at a density of 50,000 cells per well. Cells were trypsinized 1, 3, 5 and 7 days after re-plating, and counted with a Z2 coulter particle counter.

Series [2] has as its system FaDu cells. Nature of the series: Hypoxic cytotoxicity of ACN, colony formation assay. Type of series: cell-based, human. To be noted: concentrations up to 100 μM, 24 h, normoxia (20% O2) or hypoxia (1% O2 and <0.1% O2). As to the method:
as §1, §2

For series [3], the system named is FaDu cells. Nature of the series: Radiosensitization potential of ACN, colony formation assay with 5 Gy IR. It is filed as cell-based, human. To be noted: 100 μM ACN and 5 Gy IR, normoxia or hypoxia (<0.1% O2). How it is done: as §1, §2
A further series relates to FaDu xenograft tumors. Nature of the series: Assessment of ACN as a hypoxia tracer in tumor-bearing mice. It is filed as in vivo, BALB/c nude mice. To be noted: 80 mg/Kg intraperitoneally, 2 hours post-injection. How it is done: Female BALB/c nude mice (Charles River Laboratories) aged 6 weeks were used and cared for according to the CCAC guidelines. We used a biflanked sub-cutaneous tumor model where the tumor in the left flank was untreated (control) and the tumor in the right flank served as the ‘treatment’ group. We subcutaneously injected 6×10^6 FaDu cells in 0.1 ml of sterile 0.9% NaCl into the upper right flank to form palpable tumors. The tumors were measured daily until the volume reached 10 mm3. The mice were divided into 4 groups and injected intraperitoneally in 0.15 ml 0.9% saline with: 1-80 mg/Kg ACN, 2-80 mg/Kg pimonidazole (Hypoxyprobe), 3-80 mg/Kg ACN:pimonidazole in a 1:1 ratio and 4-0.9% saline control. Mice were sacrificed 2 hours post-injection, tumors removed and frozen in OCT. Seven micron serial sections were taken of each tumor, dried and stored at −80° C.
Tissue sections were air dried for 25 minutes, fixed for 5 minutes in −20° C. acetone; air dried 25 minutes and blocked in PBS with 1% BSA for 20 minutes. Sections were incubated with primary antibodies for small vessel endothelium [1:100 rabbit anti-CD34 (abcam)] or hypoxia [1:100 rabbit anti-pimonidazole Hypoxyprobe)] for 2 hours at room temperature, followed by 3 five minute washes in 1×PBS. […]

Series [4] relates to FaDu cells. The experiment in a line: Retention profile of ACN in hypoxic cells following re-oxygenation. Type of series: cell-based, human. To be noted: 100 μM. How it is done:
After bioreductive activation under hypoxia, nitroimidazole reactive species (nitroradical anion) bind to cellular nucleophiles to form drug-protein adducts. To evaluate how fast these adducts are metabolized, we treated FaDu cells with 100 μM of ACN under normoxia or anoxia for 6 hours, and exposed them to subsequent re-oxygenation. Cells were fixed after 0 hr, 1 hr, 3 hr, 6 hr and 18 hr of re-oxygenation. Click chemistry was performed on fixed cells as previously described.

Series [5] deals with FaDu cells. Nature of the series: Comparison of hypoxia selective uptake of ACN and Pimonidazole in vitro. Type of series: cell-based, human. As to the method: FaDu cells were grown on coverslips (as described above) and treated simultaneously with 100 μM ACN and 100 μM Pimonidazole. The cells were subsequently exposed to normoxic (20% Oxygen), hypoxic (1% Oxygen) or anoxic (0% Oxygen) conditions for 6 hours, and fixed in 2% PFA. Standard Pimonidazole IHC was performed as described elsewhere using an Alexafluor 647 labelled secondary antibody. Click chemistry was performed as previously described using an Alexafluor 555 conjugated alkyne followed by nuclear staining with Hoechst. Mounted coverslips on glass slides were imaged as described earlier.

In series [6] the test system is FaDu cells. Nature of the series: In vitro inverse oxygen dependent entrapment of ACN, click chemistry fluorescence. It is filed as cell-based, human. How it is done:
The Click-IT reaction cocktail (Molecular Probes) was made up according to the manufacturer's directions using a 1:5000 dilution of the 2 mg/ml Alexafluor 555 or 594 conjugated alkyne stock (Molecular Probes). The reaction cocktail was used within 15 minutes of preparation. All reactions were done at room temperature in the dark.
Subconfluent FaDu cells were trypsinized, and approximately 3-5×10^5 cells were seeded in 35 mm tissue culture plates containing sterilized […] glass coverslips. Cells were allowed to grow overnight, and treated with different concentrations of ACN (1 μM, 10 μM and 100 μM) under normoxia (20% Oxygen), hypoxia (1% Oxygen) or anoxia (0% Oxygen) for 6 hours. Hypoxia and anoxia were achieved using an in house de-gassing system. Post-treatment, all steps were carried out at room temperature. Cells were washed three to five times with 1×PBS, fixed in 2% paraformaldehyde (PFA) for 20 minutes, and washed again three times with 1×PBS. The fixed cells were then blocked and permeabilized with 1% BSA in 1×PBS containing 0.1% Triton-100 for 20 minutes, followed by incubation with click cocktail containing Alexafluor 594 conjugated alkyne for 30 minutes. Subsequently cells were washed and stained with Hoechst 33342 (1:10000 dilution in PBS, Life Technologies) for 5 minutes before mounting them on glass slides (Fluoroshield Mounting Medium, abcam). The prepared slides were kept at 4° C. until imaged. Images were obtained by with a Plan-Apochromat 40X/1.3 Oil DIC lens on a Zeiss 710 confocal microscope using Zen 2011 software.

Turning to `[N-]=[N+]=NCC1OC(n2ccnc2[N+](=O)[O-])[C@H](O)[C@H]1O` (some centres unmarked) [ACN, 5’-azido-arabinofuranosyl-2-nitroimidazole], in the series with FaDu cells [1], the “cell counts compared to vehicle control” value is “did not generate significant difference in cell counts”. Further, the “hypoxia-selective cytotoxicity (colony formation)” value in the series on FaDu cells [2] is “did not show any hypoxia-selective cytotoxicity”. Further, in the series with FaDu cells [3], the “hypoxic radiosensitization (colony formation)” value was “No hypoxic radiosensitization was observed”. Moreover, in the series on FaDu xenograft tumors, the “localization in tumor sections” value is “co-localizes in hypoxic regions of FaDu xenograft tumors”. Also, the “time after re-oxygenation up to which signal for ACN-protein adducts could be detected” value in the series on FaDu cells [4] (6 h anoxia then re-oxygenation) is given as “up to 6 hours”. Moreover, the “signal after 18 hours re-oxygenation” value with FaDu cells [4] (18 hours re-oxygenation) is “very faint signal”. In addition, in the series on FaDu cells [5] (100 μM of each compound, 6 h), the “staining detected by oxygen condition” value is “detected in oxygen deprived cells”. Also, the “sub-cellular distribution of signal” value in the series with FaDu cells [5] (hypoxic <0.1% O2 cells, 100 μM) is given as “higher nuclear signal”. Besides, the “entrapment in cells versus oxygen level (click signal)” value with FaDu cells [6] (1, 10, 100 μM, 6 h, normoxia, hypoxia, <0.1% O2) is given as “entrapped in FaDu cells in an inverse oxygen dependent manner”. The “dose dependence of entrapment in hypoxic cells” value in the series on FaDu cells [6] (1-100 μM, hypoxic cells) is “dose dependent manner”. In addition, the “entrapment in well oxygenated or normoxic cells” value with FaDu cells [6] (normoxia (20% Oxygen)) is reported as “minimal to almost no entrapment”.
